For ten cell lines, relative viability results are on record in the supplement of paper PMC10307832.

Holding throughout (assay): relative viability (nuclei count vs DMSO), 5 days (fraction); higher = more cells survive
Compound in the assay “Sunitinib + Linsitinib”: CCN(CC)CCNC(=O)c1c(C)[nH]c(/C=C2\C(=O)Nc3ccc(F)cc32)c1C [Sunitinib] + C[C@]1(O)C[C@@H](c2nc(-c3ccc4ccc(-c5ccccc5)nc4c3)c3c(N)nccn32)C1 [Linsitinib] (partner 1 µM)
Put shortly:
(§1)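 Cells from lung cancer lines were seeded into 1536-well plates and, one day later, dosed by pin tool. Treatments were either a single drug or a fixed dose of an anchor drug with five library-drug doses (not always all listed) in √10 steps. After 5 days, nuclei were stained in a one-step fixation (final 0.05% Triton X-100, 1% formaldehyde, 1 ug/ml Hoechst) and counted on 4× images, and relative viability is the treated-to-vehicle nuclei ratio, as the median of duplicate plates.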

Compound in the assay “Sunitinib + Trametinib”: CCN(CC)CCNC(=O)c1c(C)[nH]c(/C=C2\C(=O)Nc3ccc(F)cc32)c1C [Sunitinib] + CC(=O)Nc1cccc(-n2c(=O)n(C3CC3)c(=O)c3c(Nc4ccc(I)cc4F)n(C)c(=O)c(C)c32)c1 [Trametinib] (partner 0.02 µM)
The method, boiled down:
as §1

Compound in the assay “Sunitinib + OSI-027”: CCN(CC)CCNC(=O)c1c(C)[nH]c(/C=C2\C(=O)Nc3ccc(F)cc32)c1C [Sunitinib] + COc1cccc2cc(-c3nc([C@H]4CC[C@H](C(=O)O)CC4)n4ncnc(N)c34)[nH]c12 [OSI-027] (partner 0.5 µM)
Put shortly: as §1

Compound in the assay “Sunitinib + Lapatinib”: CCN(CC)CCNC(=O)c1c(C)[nH]c(/C=C2\C(=O)Nc3ccc(F)cc32)c1C [Sunitinib] + CS(=O)(=O)CCNCc1ccc(-c2ccc3ncnc(Nc4ccc(OCc5cccc(F)c5)c(Cl)c4)c3c2)o1 [Lapatinib] (partner 2 µM)
Put shortly: as §1

Turning to LCLC-103H, the relative viability worked out at 0.987 in the assay with Sunitinib + Linsitinib (first compound 0.02 µM); 1.02 with Sunitinib + Linsitinib (first compound 0.06325 µM); 1.11 with Sunitinib + Linsitinib (first compound 0.2 µM); 1.1 in the assay with Sunitinib + Linsitinib (first compound 0.6325 µM); 1.08 with Sunitinib + Linsitinib (first compound 2 µM); 0.612 in the assay with Sunitinib + Trametinib (first compound 0.02 µM). Besides, the relative viability stood at 0.692 in the assay with Sunitinib + Trametinib (first compound 0.06325 µM); 0.629 with Sunitinib + Trametinib (first compound 0.2 µM); 0.728 with Sunitinib + Trametinib (first compound 0.6325 µM); 0.719 with Sunitinib + Trametinib (first compound 2 µM); 0.373 in the assay with Sunitinib + OSI-027 (first compound 0.02 µM); 0.477 with Sunitinib + OSI-027 (first compound 0.06325 µM). Besides, the relative viability with Sunitinib + OSI-027 (first compound 0.2 µM) came out at 0.467; in the assay with Sunitinib + OSI-027 (first compound 0.6325 µM), 0.397; with Sunitinib + OSI-027 (first compound 2 µM) it was 0.456.

Regarding NCI-H441, the relative viability in the assay with Sunitinib + Linsitinib (first compound 0.02 µM) was 0.406; with Sunitinib + Linsitinib (first compound 0.06325 µM), 0.491; with Sunitinib + Linsitinib (first compound 0.2 µM), 0.542; in the assay with Sunitinib + Linsitinib (first compound 0.6325 µM), 0.555; with Sunitinib + Linsitinib (first compound 2 µM) it was 0.612; with Sunitinib + Trametinib (first compound 0.02 µM), 0.432. Further, the relative viability amounted to 0.581 with Sunitinib + Trametinib (first compound 0.06325 µM); 0.518 in the assay with Sunitinib + Trametinib (first compound 0.2 µM); 0.524 in the assay with Sunitinib + Trametinib (first compound 0.6325 µM); 0.409 in the assay with Sunitinib + Trametinib (first compound 2 µM); 0.651 in the assay with Sunitinib + OSI-027 (first compound 0.02 µM); 0.751 with Sunitinib + OSI-027 (first compound 0.06325 µM). Moreover, the relative viability with Sunitinib + OSI-027 (first compound 0.2 µM) amounted to 0.898; with Sunitinib + OSI-027 (first compound 0.6325 µM), 0.684; in the assay with Sunitinib + OSI-027 (first compound 2 µM) it was 0.47.

Take NCI-H522: the relative viability with Sunitinib + Trametinib (first compound 0.06325 µM) amounted to 0.672; with Sunitinib + Trametinib (first compound 0.2 µM), 0.667; in the assay with Sunitinib + Trametinib (first compound 0.6325 µM), 0.783; in the assay with Sunitinib + Trametinib (first compound 2 µM) it was 0.794; in the assay with Sunitinib + OSI-027 (first compound 0.02 µM) it was 0.648; with Sunitinib + OSI-027 (first compound 0.06325 µM), 0.831. Moreover, the relative viability in the assay with Sunitinib + OSI-027 (first compound 0.2 µM) amounted to 0.769; in the assay with Sunitinib + OSI-027 (first compound 0.6325 µM) it was 0.744; in the assay with Sunitinib + OSI-027 (first compound 2 µM), 0.69.

On to NCI-H1299, for which the relative viability in the assay with Sunitinib + Lapatinib (first compound 0.02 µM) stood at 0.956; in the assay with Sunitinib + Lapatinib (first compound 0.06325 µM) it was 0.988; in the assay with Sunitinib + Lapatinib (first compound 0.2 µM) it was 0.992; in the assay with Sunitinib + Lapatinib (first compound 0.6325 µM), 0.932; with Sunitinib + Lapatinib (first compound 2 µM) it was 0.953; in the assay with Sunitinib + Linsitinib (first compound 0.02 µM) it was 0.922. In addition, the relative viability in the assay with Sunitinib + Linsitinib (first compound 0.2 µM) was found to be 1.05; in the assay with Sunitinib + Linsitinib (first compound 0.6325 µM), 0.998; with Sunitinib + Linsitinib (first compound 2 µM), 1.05.

Turning to NCI-H1563, the relative viability with Sunitinib + Lapatinib (first compound 0.02 µM) amounted to 0.925; with Sunitinib + Lapatinib (first compound 0.06325 µM) it was 0.988; in the assay with Sunitinib + Lapatinib (first compound 0.2 µM) it was 1.03; with Sunitinib + Lapatinib (first compound 0.6325 µM) it was 1.09; in the assay with Sunitinib + Lapatinib (first compound 2 µM), 1.05; with Sunitinib + Linsitinib (first compound 0.02 µM) it was 1.27. For the same cell line, the relative viability in the assay with Sunitinib + Linsitinib (first compound 0.06325 µM) is 1.23; with Sunitinib + Linsitinib (first compound 0.2 µM) it was 1.23; with Sunitinib + Linsitinib (first compound 0.6325 µM), 1.21; in the assay with Sunitinib + Linsitinib (first compound 2 µM), 1.22; in the assay with Sunitinib + OSI-027 (first compound 0.02 µM), 0.694; in the assay with Sunitinib + OSI-027 (first compound 0.06325 µM), 0.79. The relative viability was 0.766 with Sunitinib + OSI-027 (first compound 0.2 µM), 0.762 in the assay with Sunitinib + OSI-027 (first compound 0.6325 µM) and 0.75 with Sunitinib + OSI-027 (first compound 2 µM).

On to NCI-H1648, for which the relative viability with Sunitinib + Trametinib (first compound 0.02 µM) is 0.502; with Sunitinib + Trametinib (first compound 0.06325 µM), 0.529; in the assay with Sunitinib + Trametinib (first compound 0.2 µM), 0.524; with Sunitinib + Trametinib (first compound 0.6325 µM), 0.445; in the assay with Sunitinib + Trametinib (first compound 2 µM), 0.499; in the assay with Sunitinib + OSI-027 (first compound 0.06325 µM), 0.24. In addition, the relative viability amounted to 0.266 in the assay with Sunitinib + OSI-027 (first compound 0.2 µM), 0.231 with Sunitinib + OSI-027 (first compound 0.6325 µM) and 0.294 in the assay with Sunitinib + OSI-027 (first compound 2 µM).

In the case of NCI-H1650, the relative viability with Sunitinib + Lapatinib (first compound 0.02 µM) came out at 0.559; with Sunitinib + Lapatinib (first compound 0.2 µM), 0.769; in the assay with Sunitinib + Lapatinib (first compound 0.6325 µM), 0.739; with Sunitinib + Lapatinib (first compound 2 µM), 0.737; with Sunitinib + Trametinib (first compound 0.02 µM), 0.509; with Sunitinib + Trametinib (first compound 0.06325 µM), 0.63. The relative viability in the assay with Sunitinib + Trametinib (first compound 0.2 µM) was 0.874; with Sunitinib + Trametinib (first compound 0.6325 µM), 0.621; with Sunitinib + Trametinib (first compound 2 µM) it was 0.552; with Sunitinib + OSI-027 (first compound 0.02 µM), 0.577; with Sunitinib + OSI-027 (first compound 0.06325 µM), 0.65; with Sunitinib + OSI-027 (first compound 0.2 µM) it was 0.527. In addition, the relative viability with Sunitinib + OSI-027 (first compound 0.6325 µM) came out at 0.768; in the assay with Sunitinib + OSI-027 (first compound 2 µM), 0.513.

With NCI-H1703, the relative viability with Sunitinib + Lapatinib (first compound 0.02 µM) was 0.633; with Sunitinib + Lapatinib (first compound 0.06325 µM), 0.264; with Sunitinib + Lapatinib (first compound 0.2 µM), 0.318; in the assay with Sunitinib + Lapatinib (first compound 0.6325 µM), 0.245; in the assay with Sunitinib + Lapatinib (first compound 2 µM), 0.284; in the assay with Sunitinib + Linsitinib (first compound 0.02 µM) it was 0.51. Also, the relative viability with Sunitinib + Linsitinib (first compound 0.06325 µM) was 0.18; in the assay with Sunitinib + Linsitinib (first compound 0.2 µM), 0.257; in the assay with Sunitinib + Linsitinib (first compound 0.6325 µM), 0.174; with Sunitinib + Linsitinib (first compound 2 µM), 0.17.

NCI-H2170: the relative viability with Sunitinib + Lapatinib (first compound 0.02 µM) came out at 0.313; with Sunitinib + Lapatinib (first compound 0.06325 µM), 0.264; with Sunitinib + Lapatinib (first compound 0.2 µM), 0.271; in the assay with Sunitinib + Lapatinib (first compound 0.6325 µM) it was 0.268; in the assay with Sunitinib + Lapatinib (first compound 2 µM) it was 0.243; in the assay with Sunitinib + Trametinib (first compound 0.02 µM), 0.905. The relative viability in the assay with Sunitinib + Trametinib (first compound 0.06325 µM) worked out at 0.915; with Sunitinib + Trametinib (first compound 0.2 µM) it was 1.05; with Sunitinib + Trametinib (first compound 0.6325 µM), 0.927; with Sunitinib + Trametinib (first compound 2 µM), 0.921; with Sunitinib + OSI-027 (first compound 0.02 µM), 0.746; with Sunitinib + OSI-027 (first compound 0.06325 µM), 0.687. Further, the relative viability was determined as 0.802 with Sunitinib + OSI-027 (first compound 0.2 µM), 0.737 with Sunitinib + OSI-027 (first compound 0.6325 µM) and 0.576 with Sunitinib + OSI-027 (first compound 2 µM).

For NCI-H2342, the relative viability in the assay with Sunitinib + Trametinib (first compound 0.02 µM) came out at 0.786; with Sunitinib + Trametinib (first compound 0.06325 µM), 0.877; with Sunitinib + Trametinib (first compound 0.2 µM), 0.915; with Sunitinib + Trametinib (first compound 0.6325 µM), 0.767; in the assay with Sunitinib + Trametinib (first compound 2 µM) it was 0.813; with Sunitinib + OSI-027 (first compound 0.02 µM), 0.663. Further, the relative viability with Sunitinib + OSI-027 (first compound 0.06325 µM) turned out to be 0.657; with Sunitinib + OSI-027 (first compound 0.2 µM), 0.589; in the assay with Sunitinib + OSI-027 (first compound 0.6325 µM), 0.675; with Sunitinib + OSI-027 (first compound 2 µM), 0.703.
